In US12054503B2, “Amphiphilic material and application thereof in preparation for liposome” (ZHEJIANG UNIVERSITY, priority 2021, dated 2024):

How the values were obtained:
[1] = system: orthotropic pancreatic tumor (BxPC3-Luci); test: In vivo antitumor activity in orthotropic BxPC3 tumor-bearing mice
Protocol: The orthotropic pancreatic tumor was established by using the bioluminescent BxPC3 cells (BxPC3-Luci). Bioluminescence intensities in mice were measured using the in vivo imaging system of Caliper IVIS Lumina II (PerkinElmer, USA) to evaluate tumour growth. After inoculation with bioluminescent BxPC3 cells for 8 days, the mice were selected and grouped into five groups (n=5). SCGLN, SGLN, free GEM (all dose equivalent to GEM 20 mg/kg), SCLN and PBS were intravenous injected every two days for a total of five times, the tumor site was treated with ultrasound stimulation (intensity: 2 W/cm^2, 3 MHz, duty cycle: 50%, duration: 10 min, Mettler Sonicator-740) after injection. On the first administration (8th day), 12th, 16th, and 20th day, tumor progress was assessed and semi-quantitatively analyzed via bioluminescence after injection of 10 mg/mL D-luciferin in PBS (200 μL) by using the in vivo imaging system. Mice were sacrificed on the 20th day, and tumors were dissected and weighed. The tumor inhibition rate=100%×(mean tumor weight of PBS group−mean tumor weight of experimental group)/mean tumor weight of PBS group. The tumors were fixed with 4% neutral buffered paraformaldehyde and embedded in paraffin. Tissue sections of 5-μm thick were mounted onto glass slides and stained with hematoxylin-eosin (H&E) and examined by light microscopy (OLYMPUS, BX51, Japan). […]

U251 glioma = test: In vivo antitumor activity in mice bearing U251 glioma subcutaneously
Protocol: In vivo antitumor activity of the liposomal nanometer particle was further tested in another low permeability tumor of U251 glioma. The mice were subcutaneously inoculated with 2×10^7 U251 cells on the right flank. Same as the experiment of pancreatic tumor treatment, mice were randomly grouped into five groups (n=5) on the 6th day after inoculation. SCGLN, SGLN, free GEM (all dose equivalent to GEM 20 mg/kg), SCLN and PBS were intravenous injected every two days for a total of five times, the tumor site was treated with ultrasound stimulation (intensity: 2 W/cm^2, 3 MHz, duty cycle: 50%, duration: 10 min, Mettler Sonicator-740) after injection, the first administration was on the 6th day. The width and length of the tumors and the bodyweight of mice were measured during the treatment. At the end of the experiment, the mice were euthanized, and tumors were dissected and weighed. The therapeutic efficacy of the treatments was evaluated by comparing the experimental group with the control group.

## Nc1ccn([C@@H]2O[C@H](CO)[C@@H](O)C2(F)F)c(=O)n1 [GEM, gemcitabine]
[1]; dose equivalent to GEM 20 mg/kg i.v. every two days, five times, ultrasound stimulation, tumor weight on 20th day
  Mean tumor inhibition rate: 66.7%
[1]; end of the experiment
  Body weight decrease at the end of the experiment: ~10 % of the initial weight
U251 glioma; dose equivalent to GEM 20 mg/kg i.v. every two days, five times, ultrasound stimulation, end of the experiment
  Anti-tumor effect (tumor eradication ability): 68.8%
U251 glioma; mouse, in vivo
  Weight of mice during the treatment: gradually decreased
